In patent US11701370B2, “Phosphonium ion channel blockers and methods for use” (Nocion Therapeutics, Inc., priority 2019, dated 2023):
Where a name gives a salt, the structure may show the parent alone.

Legend:
[1] = target: T1, NaV1.7 (Homo sapiens, UniProt Q15858); test: Internal block: intracellular inhibition of NaV1.7 current, whole cell patch clamp; assay type: cell-based; settings: compound in internal solution; for inhibition at 3 µM: 3 μM test concentration; for inhibition at 10 µM: 10 μM test concentration
T1 construct: expressed in transfected cells; tetracycline-inducible, kept under hygromycin and blasticidin selection
T1 sequence (Q15858 whole entry): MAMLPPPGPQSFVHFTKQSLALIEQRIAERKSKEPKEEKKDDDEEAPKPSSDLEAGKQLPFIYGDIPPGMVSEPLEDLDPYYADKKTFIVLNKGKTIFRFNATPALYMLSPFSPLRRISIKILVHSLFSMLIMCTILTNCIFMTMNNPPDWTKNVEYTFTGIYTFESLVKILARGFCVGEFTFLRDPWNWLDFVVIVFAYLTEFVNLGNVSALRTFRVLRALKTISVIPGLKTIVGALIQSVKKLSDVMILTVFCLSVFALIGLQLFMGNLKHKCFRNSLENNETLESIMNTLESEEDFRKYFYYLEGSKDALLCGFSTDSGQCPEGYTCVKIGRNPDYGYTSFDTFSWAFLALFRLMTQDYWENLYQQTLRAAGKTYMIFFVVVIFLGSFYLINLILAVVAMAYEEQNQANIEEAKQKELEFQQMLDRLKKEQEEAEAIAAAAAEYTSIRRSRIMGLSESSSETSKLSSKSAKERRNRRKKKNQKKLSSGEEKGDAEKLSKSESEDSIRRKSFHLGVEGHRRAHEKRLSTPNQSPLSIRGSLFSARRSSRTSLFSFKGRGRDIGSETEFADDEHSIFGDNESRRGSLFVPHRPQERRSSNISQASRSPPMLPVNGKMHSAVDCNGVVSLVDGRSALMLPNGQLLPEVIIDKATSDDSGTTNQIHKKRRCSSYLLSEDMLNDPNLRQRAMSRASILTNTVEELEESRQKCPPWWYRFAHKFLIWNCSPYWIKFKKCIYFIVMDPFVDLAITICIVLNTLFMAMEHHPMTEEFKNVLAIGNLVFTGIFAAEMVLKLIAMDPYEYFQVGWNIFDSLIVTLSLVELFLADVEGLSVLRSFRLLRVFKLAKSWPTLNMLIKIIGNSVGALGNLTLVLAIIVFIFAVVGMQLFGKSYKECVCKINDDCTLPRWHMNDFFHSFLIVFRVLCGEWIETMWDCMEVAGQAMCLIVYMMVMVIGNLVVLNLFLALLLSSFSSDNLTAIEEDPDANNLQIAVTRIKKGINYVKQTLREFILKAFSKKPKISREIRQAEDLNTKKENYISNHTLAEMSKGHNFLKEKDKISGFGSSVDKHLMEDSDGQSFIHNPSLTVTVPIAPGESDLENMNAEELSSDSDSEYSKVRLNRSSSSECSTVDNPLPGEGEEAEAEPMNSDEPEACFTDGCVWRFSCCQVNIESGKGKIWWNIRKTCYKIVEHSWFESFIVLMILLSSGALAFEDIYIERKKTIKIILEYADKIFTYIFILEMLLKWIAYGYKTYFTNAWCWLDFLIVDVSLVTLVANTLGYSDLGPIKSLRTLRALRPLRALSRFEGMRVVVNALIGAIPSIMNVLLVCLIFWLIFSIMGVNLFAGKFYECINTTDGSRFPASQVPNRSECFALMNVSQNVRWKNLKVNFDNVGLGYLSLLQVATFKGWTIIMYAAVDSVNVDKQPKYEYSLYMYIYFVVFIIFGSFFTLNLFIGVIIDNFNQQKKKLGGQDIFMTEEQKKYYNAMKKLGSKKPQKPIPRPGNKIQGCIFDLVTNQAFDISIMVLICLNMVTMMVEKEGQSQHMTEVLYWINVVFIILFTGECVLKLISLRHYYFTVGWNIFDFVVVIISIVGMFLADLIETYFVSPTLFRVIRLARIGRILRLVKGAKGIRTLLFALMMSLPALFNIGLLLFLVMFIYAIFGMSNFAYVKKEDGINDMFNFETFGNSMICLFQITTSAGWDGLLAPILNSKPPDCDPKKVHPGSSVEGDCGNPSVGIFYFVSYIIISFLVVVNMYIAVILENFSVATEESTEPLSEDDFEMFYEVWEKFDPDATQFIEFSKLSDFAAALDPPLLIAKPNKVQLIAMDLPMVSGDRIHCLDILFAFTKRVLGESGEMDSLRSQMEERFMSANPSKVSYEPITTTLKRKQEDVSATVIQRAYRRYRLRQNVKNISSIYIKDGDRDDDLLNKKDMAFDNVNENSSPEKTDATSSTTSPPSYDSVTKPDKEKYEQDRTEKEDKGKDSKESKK
Experimental: (§1) NaV1.7 was expressed upon induction with tetracycline. Cells were cultured in DMEM containing 10% dialyzed Fetal Bovine Serum (VWR, Radnor, Pa.), 1% Glutamax (VWR, Radnor, Pa.), 1% Penicillin-Streptomycin (VWR, Radnor, Pa.), 100 mg/L Hygromycin (Thermo Fisher Scientific, Waltham, Mass. and 5 mg/L Blasticidin (Alfa Aesar, Haverhill, Mass.). Cells were grown and maintained at 37° C. in a humidified environment containing 10% CO2 in air. Cells were detached from the culture flask for passage and harvested using 0.05% Trypsin-EDTA (Thermo Fisher Scientific, Waltham, Mass.). To induce NaV1.7, cells were induced with tetracycline (0.1-1 μg/mL, IBI Scientific, Peosta, Iowa) the day before recording and plated onto 24-well plates. Cells were washed with DPBS (VWR, Radnor, Pa.), trypsinized and then triturated five times in 10 mL of growth media to break apart cell aggregates. For one 24-well plate, 2 mL of cell suspension was mixed with 23 mL of fresh growth media and 0.1-1 μg/mL tetracycline added. 1 ml of mixed media with cells was then added to each well of a 24-well plate, with a 12 mm coverslip already placed in the bottom of the well. Cells were then incubated in 37° C. and 10% CO2 overnight.
(§2) The intracellular solution contained the following (in mM) CsCl 135, NaCl 10, EGTA 10, HEPES 10, MgCl22, adjusted to pH 7.2 with CsOH. The external solution was a normal Ringer solution containing (in mM) NaCl 155, HEPES 10, glucose 10, KCl 3.5, CaCl2 1.5, MgCl2 1 adjusted to pH 7.4 with NaOH. CsCl is from Alfa Aesar, Haverhill, Mass. All other chemicals are from Sigma-Aldrich, St. Louis, Mo. In order to test the degree of internal block by test compounds the compounds were dissolved in internal solution at the indicated test concentration. […] In order to test the degree of external block by test compounds the compounds were dissolved in external solution at the indicated test concentration.
(§3) 18-24 hours after cells were induced with tetracycline, coverslips were placed into a chamber filled with Normal Ringer solution at room temperature and the chamber placed on a microscope. Pipettes were pulled from borosilicate glass on a P97 puller (Sutter Instrument, Novato, Calif.) and polished with a MF-830 Microforge (Narishige International USA, Inc, Amityville, N.Y.) to have a resistance of 1.5-2.5 MΩ when filled with CsCl internal solution at room temperature. Healthy cells (those that are round and translucent with no visible blemishes) were chosen for seal formation. A seal was formed between the pipette and the cell, and a brief pulse of suction was used to “break in” and establish the whole-cell configuration. The membrane potential was held at −100 mV before the voltage protocol began. Only cells with series resistance between 1.5-5 MΩ were retained for analysis. The voltage protocol was as follows: Cells were held at −100 mV for 12 ms followed by a hyperpolarizing step to −105 mV for 12 ms to monitor the leak. Cells were then stepped back to −100 mV for 40 ms. Cells were then depolarized to −20 mV for 10 ms and then returned to −100 mV for 26 ms (FIG. 1).
(§4) Once the recording was started, the voltage protocol was run at 30 second intervals for 5 minutes to get a stable baseline. This was followed by four 30-second periods of 5 Hz stimulation of the same voltage protocol separated by 1 minute of rest which was then followed by 0.33 Hz stimulation after the last train. Currents were recorded using PatchMaster software with Heka EPC10 (HEKA Electronics, Lambrecht, Germany). Only cells with inward current amplitudes at −20 mV between 400 pA and 4 nA were accepted. In addition, cells having leak currents greater than 10% of their current amplitudes were discarded.
(§5) The data was plotted using the Patchmaster software (HEKA Electronics, Lambrecht, Germany) and analyzed by plotting the minimum current during the voltage step to −20 mV (peak inward current) as a function of time. […]

[2] = PAMPA membrane permeability assay (artificial lipid membrane, passive diffusion); assay type: in vitro ADME; settings: pH 7.4 buffer, GIT lipid, 4 hours incubation
Experimental: The PAMPA assay (pION, Inc., Woburn Mass.) was used to determine the ability of compounds of the invention to cross an artificial lipid membrane by passive diffusion. Test compounds were dissolved in DMSO (10 mM) and diluted 200-fold in buffer (pION Inc., pH 7.4) to provide 50 uM stock solutions. Buffer (150 μL) was added to a UV blank plate and stock solutions (150 μL) were transferred to a UV reference plate. The blank and reference spectrum were read using a spectrophotometer. Stock solutions (200 μL) were added to the donor plate of the PAMPA sandwich plate and an accept plate painted with GIT lipid (pION Inc, 5 μL) was placed on top. Buffer (200 μL) was added to the acceptor plate and the PAMPA sandwich plate was incubated for 4 hours. Aliquots (150 μL) from the acceptor plate were added to a UV plate and read as acceptor spectrum. Aliquots (150 μL) of the donor solutions were added to a UV analysis plate and read as donor spectrum. The permeability coefficient of test compounds was calculated using PAMPA Explorer™ software (version 3.5.0.4) based on the AUC of the reference plate, the donor plate, and the acceptor plate.
The PAMPA permeability results (10^−6 cm/s) of representative compounds are reported as “+” (<0.1 10^−6 cm/s), “++” (0.1-2.0 10^−6 cm/s), “+++” (2.0-10.010^−6 cm/s) or “++++” (>10.0 10^−6 cm/s).

[3] = target: T1, NaV1.7; test: External block: extracellular inhibition of NaV1.7 current, whole cell patch clamp; assay type: cell-based; settings: compound in external solution; for inhibition at 3 µM: 3 μM test concentration; for inhibition at 10 µM: 10 μM test concentration
Experimental: as §1, §2, §3
as §4, with “This is” for “This was”, “by” for “by four 30-second periods of”, “protocol run until the end” for “protocol separated by 1 minute”, “of experiment. […] The test compound is added for 5 minutes before washing out with normal Ringer's solution.” for “of rest which was then followed by 0.33 Hz stimulation after the last train.”
as §5

Row | inhibition at 3 µM [1] [%] | Papp at 4 h, 50 uM [2] [×10⁻⁶ cm/s] | inhibition at 10 µM [1] [%] | inhibition at 3 µM [3] [%] | inhibition at 10 µM [3] [%] | inhibition at 1000 µM ([3]; 1,000 μM test concentration) [%] | SMILES
1 | < 40 | < 0.1 | – | – | – | – | CC[P+](CC)(CC)CC(=O)Nc1c(C)cccc1C(=O)OC.[Br-] [Compound 21]
2 | < 40 | < 0.1 | – | – | – | – | COC(=O)c1cccc(C)c1NC(=O)C[P+](c1ccccc1)(c1ccccc1)c1ccccc1 [Compound 23]
3 | 70 to 90 | < 0.1 | – | < 40 | – | – | CCOC(=O)c1cccc(F)c1NC(=O)C[P+]1(Cc2ccccc2)CCCCC1 [Compound 15]
4 | > 90 | < 0.1 | – | < 40 | – | – | CCOC(=O)c1cccc(OCC)c1NC(=O)C[P+]1(Cc2ccccc2)CCCCC1 [Compound 20]
5 | 40 to 70 | < 0.1 | – | – | – | – | Cc1cccc(C(=O)OC(C)(C)C)c1NC(=O)C[P+]1(Cc2ccccc2)CCCCC1 [Compound 14]
6 | > 90 | < 0.1 | – | 40 to 70 | – | – | CCOC(=O)c1cccc(C)c1NC(=O)C[P+]1(Cc2ccccc2)CCCCC1 [Compound 13]
7 | > 90 | > 10 | – | 40 to 70 | – | – | CCOC(=O)c1cccc(Cl)c1NC(=O)C[P+]1(Cc2ccccc2)CCCCC1 [Compound 17]
8 | 70 to 90 | < 0.1 | – | – | 40 to 70 | – | CCOC(=O)c1cccc(CC)c1NC(=O)C[P+]1(Cc2ccccc2)CCCCC1 [Compound 19]
9 | 70 to 90 | – | – | – | – | – | COC(=O)c1cccc(C)c1NC(=O)C[P+]1(Cc2ccccc2)CCCCC1 [Compound 16]
10 | 70 to 90 | < 0.1 | – | – | – | – | CCCC[P+](CCCC)(CCCC)CC(=O)Nc1c(C)cccc1C(=O)OC.[Br-] [Compound 22]

More lines, now with the values behind:

Row | SMILES | inhibition at 3 µM [1] [%] | Papp at 4 h, 50 uM [2] [×10⁻⁶ cm/s] | inhibition at 10 µM [1] [%] | inhibition at 3 µM [3] [%] | inhibition at 10 µM [3] [%] | inhibition at 1000 µM ([3]; 1,000 μM test concentration) [%]
11 | CCC(C(=O)Nc1c(C)cccc1C(=O)OC)[P+]1(Cc2ccccc2)CCCCC1 (centres unmarked) [Compound 11] | 70 to 90 | < 0.1 | – | – | – | –
12 | CCC(C(=O)Nc1c(C)cccc1C)[P+](CC)(CC)CC (centres unmarked) [Compound 2, (1-((2,6-dimethylphenyl)amino)-1-oxobutan-2-yl) triethylphosphonium carbonate] | – | > 10 | 40 to 70 | – | – | –
13 | CC[P+](CC)(CC(=O)Nc1c(C)cccc1C)CC(=O)Nc1c(C)cccc1C [Compound 6, bis (2-((2,6-dimethylphenyl)amino)-2-oxoethyl) diethyl phosphonium acetate] | – | < 0.1 | 70 to 95 | – | – | –
14 | Cc1cccc(C)c1NC(=O)C[P+]1(Cc2ccccc2)CCCCC1.[Br-] [Compound 4, 1-benzyl-1-(2-((2,6-dimethylphenyl)amino)-2-oxoethyl) phosphinan-1-ium bromide] | – | 0.1 to 2 | > 95 | – | 40 to 70 | –
15 | Cc1cccc(C)c1NC(=O)C[P+]1(Cc2ccccc2)CCCC1 [Compound 5, 1-benzyl-1-(2-((2,6-dimethylphenyl)amino)-2-oxoethyl) phospholan-1-ium bromide] | – | 0.1 to 2 | 70 to 95 | – | < 40 | –
16 | CCC(C(=O)Nc1c(C)cccc1C)[P+]1(Cc2ccccc2)CCCCC1 (centres unmarked) [Compound 10, 1-benzyl-1-(1-((2,6-dimethylphenyl)amino)-1-oxobutan-2-yl)phosphinan-1-ium formate] | – | < 0.1 | > 95 | 40 to 70 | – | –
17 | Cc1cccc(C)c1NC(=O)C[P+]1(Cc2ccccc2)CCCCCC1 [Compound 3, 1-benzyl-1-(2-((2,6-dimethylphenyl)amino)-2-oxoethyl) phosphepan-1-ium bromide] | – | < 0.1 | > 95 | – | 40 to 70 | –
18 | CC[P+](CC)(CC)CC(=O)Nc1c(C)cccc1C [Compound 1, (2-((2,6-dimethylphenyl)amino)-2-oxoethyl) triethylphosphonium bromide] | – | < 0.1 | 70 to 95 | – | – | < 40
19 | CCCC[P+](CCCC)(CCCC)CC(=O)Nc1c(C)cccc1C.[Br-] [Compound 7, tri-n-butyl (2-((2,6-dimethylphenyl)amino)-2-oxoethyl) phosphonium bromide] | – | 2 to 10 | > 95 | – | – | –
20 | CCC(C(=O)Nc1c(C#N)cccc1C(=O)OC)[P+]1(Cc2ccccc2)CCCCC1 (centres unmarked) [Compound 12] | 70 to 90 | – | – | – | – | –
21 | Cc1cccc(C)c1NC(=O)C[P+](c1ccccc1)(c1ccccc1)c1ccccc1.O=C[O-] [Compound 8, (2-((2,6-dimethylphenyl)amino)-2-oxoethyl) triphenylphosphonium formate] | – | < 0.1 | > 95 | 40 to 70 | – | –
22 | CCC(C(=O)Nc1c(C)cccc1C)[P+](c1ccccc1)(c1ccccc1)c1ccccc1 (centres unmarked) [Compound 9, (1-((2,6-dimethylphenyl)amino)-1-oxobutan-2-yl) triphenylphosphonium formate] | – | 2 to 10 | > 95 | – | – | –
